Experimental data from patent US11059787B2, “Crystalline form of lenvatinib mesylate and methods thereof” (Shenzhen Bolan Pharmaceutical Co., LTD., priority 2019, dated 2021).

What was measured:
[1] = Solubility in water with 1% polyvinyl alcohol; assay type: physicochemical; settings: solids added until not completely dissolved, in suspension for 5 hours, methanesulfonate
Description: The solubility of Form XI was measured as compared to the previously reported Form A and Form C in U.S. Pat. No. 7,612,208. Form XI, Form A and Form C solids were gradually added into water with 1% polyvinyl alcohol until the solids could not dissolve completely and stay in suspension for 5 hours.

in vivo = settings: BALB/c, mouse, po
[2] = Storage stability of the crystalline form for 15 days, compared by XRPD; assay type: physicochemical; settings: stored 15 days at 8° C., 25° C., 25° C./92.5% RH, 25° C./4500 LUX and 40° C./75% RH; XRPD comparison
Description: The stability of Form XI was measured after being stored for 15 days under the following conditions: 8° C., 25° C., 25° C./92.5% RH, 25° C./4500 LUX and 40° C./75% RH.

Compound	Solubility [1] [mg/mL]	AUC(0-inf) (in vivo) [ng·h/mL]	Cmax (in vivo) [ng/mL]	Tmax (in vivo) [min]	bioavailability (in vivo) [%]	half-life (in vivo) [min]	Stability under storage conditions [2]
COc1cc2nccc(Oc3ccc(NC(=O)NC4CC4)c(Cl)c3)c2cc1C(N)=O.CS(=O)(=O)O [Form A, 4-(3-chloro-4-(cyclopropylaminocarbonyl)aminophenoxy)-7-methoxy-6-quinolinecarboxamide methanesulfonate]	11.75	–	–	–	–	–	–
COc1cc2nccc(Oc3ccc(NC(=O)NC4CC4)c(Cl)c3)c2cc1C(N)=O.CS(=O)(=O)O [Form C, 4-(3-chloro-4-(cyclopropylaminocarbonyl)aminophenoxy)-7-methoxy-6-quinolinecarboxamide methanesulfonate]	16.175	–	–	–	–	–	–
COc1cc2nccc(Oc3ccc(NC(=O)NC4CC4)c(Cl)c3)c2cc1C(N)=O.CS(=O)(=O)O [Form XI, 4-(3-chloro-4-(cyclopropylaminocarbonyl)aminophenoxy)-7-methoxy-6-quinolinecarboxamide methanesulfonate]	26.65	38900 ± 11100	11500 ± 2920	50	109	117 ± 2.4	stable
